Key:
HCT-116 = experiment: Antiproliferative activity against human HCT-116 cells incubated for 72 hrs by MTT assay; type: functional, cell-based; details: HCT-116, 72 h
HepG2 = experiment: Antiproliferative activity against human HepG2 cells incubated for 72 hrs by MTT assay; type: functional, cell-based; details: HepG2, 72 h
[1] = molecular target: T1, Protein cereblon/Cyclin-dependent kinase 9 (Homo sapiens, UniProt P50750+Q96SW2); experiment: Protac activity at CRBN/CDK9 in human MOLM-13 cells assessed as CDK9 degradation rate at 500 nM incubated for 6 hrs by Western blot assay relative to control; type: cell-based
Target sequence in this assay (P50750 whole entry, looked up): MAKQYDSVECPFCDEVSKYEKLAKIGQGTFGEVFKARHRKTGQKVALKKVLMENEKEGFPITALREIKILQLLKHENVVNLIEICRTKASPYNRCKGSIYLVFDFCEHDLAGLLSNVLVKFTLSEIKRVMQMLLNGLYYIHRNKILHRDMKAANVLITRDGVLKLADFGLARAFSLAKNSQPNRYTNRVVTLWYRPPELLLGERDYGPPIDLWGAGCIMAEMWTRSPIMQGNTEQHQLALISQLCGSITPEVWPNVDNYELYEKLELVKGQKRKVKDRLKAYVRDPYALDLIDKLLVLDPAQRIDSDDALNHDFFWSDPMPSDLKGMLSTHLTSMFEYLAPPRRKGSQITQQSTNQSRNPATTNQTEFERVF
Target sequence in this assay (Q96SW2 whole entry, looked up): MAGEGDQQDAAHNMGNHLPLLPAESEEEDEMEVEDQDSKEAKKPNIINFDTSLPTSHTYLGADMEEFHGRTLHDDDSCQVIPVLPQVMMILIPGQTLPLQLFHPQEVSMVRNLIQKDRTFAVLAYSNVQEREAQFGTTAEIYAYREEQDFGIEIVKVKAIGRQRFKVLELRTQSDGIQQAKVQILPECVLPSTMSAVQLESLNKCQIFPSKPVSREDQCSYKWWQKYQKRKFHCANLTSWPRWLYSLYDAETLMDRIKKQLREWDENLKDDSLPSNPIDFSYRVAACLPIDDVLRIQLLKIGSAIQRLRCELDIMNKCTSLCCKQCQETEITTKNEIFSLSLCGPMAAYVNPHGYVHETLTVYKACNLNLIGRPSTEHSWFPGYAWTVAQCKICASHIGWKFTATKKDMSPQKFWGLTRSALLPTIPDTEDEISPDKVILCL

A549 = experiment: Antiproliferative activity against human A549 cells incubated for 72 hrs by MTT assay; type: functional, cell-based; details: A549, 72 h
B16 = experiment: Antiproliferative activity against mouse B16 cells incubated for 72 hrs by MTT assay; type: functional, cell-based; details: B16, 72 h
MOLM-13 = experiment: Antiproliferative activity against human MOLM-13 cells incubated for 72 hrs by MTT assay; type: functional, cell-based; details: MOLM-13, 72 h
[2] = molecular target: T1, Protein cereblon/Cyclin-dependent kinase 9; experiment: Protac activity at CRBN/CDK9 in human MV4-11 cells assessed as CDK9 degradation rate at 500 nM incubated for 6 hrs by Western blot assay relative to control; type: cell-based
Target sequence in this assay (P50750 whole entry, looked up): as the sequence (P50750 whole entry, looked up) above
Target sequence in this assay (Q96SW2 whole entry, looked up): as the sequence (Q96SW2 whole entry, looked up) above

CDK9/cyclin T1 = CDK9/cyclin T1 (Homo sapiens, UniProt P50750); experiment: Inhibition of CDK9/cyclin T (unknown origin) using YSPTSPSYSPTSPSYSPTSPKKK or histone H1 as substrate incubated for 2 hrs in presence of [gamma-33P]ATP by radioactive filter binding assay; type: protein-complex assay
MCF7 = experiment: Antiproliferative activity against human MCF7 cells incubated for 72 hrs by MTT assay; type: functional, cell-based; details: MCF7, 72 h
MV4-11 [3] = experiment: Antiproliferative activity against human MV4-11 cells incubated for 72 hrs by MTT assay; type: functional, cell-based; details: MV4-11, 72 h
MV4-11 [4] = experiment: Induction of apoptosis in human MV4-11 cells assessed as viable cells at 500 nM after 6 hrs by AnnexinV-FITC/propidium iodide staining based flow cytometry (reference value: 90.1 %); type: functional; details: read-out: Activity
MV4-11 [5] = experiment: Induction of apoptosis in human MV4-11 cells assessed as late apoptotic cells at 500 nM after 6 hrs by AnnexinV-FITC/propidium iodide staining based flow cytometry (reference value: 4.29%); type: functional
MV4-11 [6] = experiment: Induction of apoptosis in human MV4-11 cells assessed as early apoptotic cells at 500 nM after 6 hrs by AnnexinV-FITC/propidium iodide staining based flow cytometry (reference value: 5.36 %); type: functional
MV4-11 [7] = experiment: Induction of apoptosis in human MV4-11 cells assessed as necrotic cells at 500 nM after 6 hrs by AnnexinV-FITC/propidium iodide staining based flow cytometry (reference value: 0.16 %); type: functional
MV4-11 [8] = experiment: Induction of apoptosis in human MV4-11 cells assessed as total apoptotic cells at 500 nM after 6 hrs by AnnexinV-FITC/propidium iodide staining based flow cytometry (reference value: 9.75 %); type: functional
[9] = molecular target: T1, Protein cereblon/Cyclin-dependent kinase 9; experiment: Protac activity at CRBN/CDK9 in human MV4-11 cells assessed as induction of CDK9 degradation incubated for 6 hrs by Western blot assay; type: cell-based
Target sequence in this assay (P50750 whole entry): as the sequence (P50750 whole entry, looked up) above
Target sequence in this assay (Q96SW2 whole entry): as the sequence (Q96SW2 whole entry, looked up) above

Sequence of CDK9/cyclin T1 (O60563 whole entry): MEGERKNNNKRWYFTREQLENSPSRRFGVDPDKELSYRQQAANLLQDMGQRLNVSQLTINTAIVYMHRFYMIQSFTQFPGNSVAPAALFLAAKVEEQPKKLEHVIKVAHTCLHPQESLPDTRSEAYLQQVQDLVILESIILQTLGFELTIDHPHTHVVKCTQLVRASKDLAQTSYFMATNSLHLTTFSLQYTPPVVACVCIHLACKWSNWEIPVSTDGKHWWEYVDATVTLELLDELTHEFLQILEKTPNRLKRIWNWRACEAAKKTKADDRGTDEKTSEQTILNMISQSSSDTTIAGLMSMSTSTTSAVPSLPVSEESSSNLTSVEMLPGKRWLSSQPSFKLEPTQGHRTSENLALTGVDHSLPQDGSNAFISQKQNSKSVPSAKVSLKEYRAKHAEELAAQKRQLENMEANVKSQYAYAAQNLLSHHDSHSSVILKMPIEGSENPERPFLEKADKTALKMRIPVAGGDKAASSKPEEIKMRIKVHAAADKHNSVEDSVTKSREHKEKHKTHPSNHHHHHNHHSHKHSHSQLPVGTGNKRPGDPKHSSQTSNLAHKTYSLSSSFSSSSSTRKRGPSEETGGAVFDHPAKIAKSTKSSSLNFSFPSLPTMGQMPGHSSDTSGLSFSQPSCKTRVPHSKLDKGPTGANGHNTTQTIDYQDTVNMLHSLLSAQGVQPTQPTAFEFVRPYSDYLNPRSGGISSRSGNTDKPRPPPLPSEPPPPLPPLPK
Sequence of CDK9/cyclin T1 (P50750 whole entry): as the sequence (P50750 whole entry, looked up) above

IC50 (HCT-116) | IC50 (HepG2) | Activity [1] | IC50 (A549) | IC50 (B16) | IC50 (MOLM-13) | Activity [2] | IC50 (CDK9/cyclin T1) | IC50 (MCF7) | IC50 (MV4-11 [3]) | DC50 [9] | SMILES | viability at 0.5 µM (MV4-11 [4]) | Activity (MV4-11 [5]) | Activity (MV4-11 [6]) | Activity (MV4-11 [7]) | Activity (MV4-11 [8])
> 50 µM | > 50 µM | 49% | > 50 µM | > 50 µM | > 50 µM | 44% | 6.34 µM | > 50 µM | 2.6 µM |  | COc1cc(N2CCN(CCCCCCCCCC(=O)NCCNc3cccc4c3C(=O)N(C3CCC(=O)NC3=O)C4=O)CC2)ccc1-c1ncnc(Nc2cccc(CS(C)(=N)=O)c2)n1 (configuration not stated) |  |  |  |  | 
> 50 µM | > 50 µM | 23% | > 50 µM | > 50 µM | > 50 µM | 33% | 6.87 µM | > 50 µM | 4.9 µM |  | COc1cc(N2CCN(CCCCCCCC(=O)NCCNc3cccc4c3C(=O)N(C3CCC(=O)NC3=O)C4=O)CC2)ccc1-c1ncnc(Nc2cccc(CS(C)(=N)=O)c2)n1 (configuration not stated) |  |  |  |  | 
> 50 µM | > 50 µM | 24% | > 50 µM | > 50 µM | > 50 µM | 62% | 8.11 µM | > 50 µM | 7.71 µM |  | COc1cc(N2CCN(CCCCCC(=O)NCCNc3cccc4c3C(=O)N(C3CCC(=O)NC3=O)C4=O)CC2)ccc1-c1ncnc(Nc2cccc(CS(C)(=N)=O)c2)n1 (configuration not stated) |  |  |  |  | 
1.42 µM | 4.15 µM | 65% | 11.9 µM | 3.5 µM | 0.47 µM | 95% | 0.0139 µM | 8.02 µM | 0.45 µM |  | COc1cc(F)ccc1-c1ncnc(Nc2cccc(CS(C)(=O)=NC(=O)CCCCCC(=O)NCCCCCNc3cccc4c3C(=O)N(C3CCC(=O)NC3=O)C4=O)c2)n1 (configuration not stated) |  |  |  |  | 
8.04 µM | 16.4 µM | 66% | 1.44 µM | 6.68 µM | 1.11 µM | 88.8% | 0.0144 µM | 5.34 µM | 0.18 µM |  | COc1cc(F)ccc1-c1ncnc(Nc2cccc(CS(C)(=O)=NC(=O)CCCCCC(=O)NCCNc3cccc4c3C(=O)N(C3CCC(=O)NC3=O)C4=O)c2)n1 (configuration not stated) |  |  |  |  | 
> 50 µM | > 50 µM | 7% | > 50 µM | > 50 µM | > 50 µM | 52% | 6.56 µM | > 50 µM | 3.8 µM |  | COc1cc(N2CCN(CCCCCCC(=O)NCCNc3cccc4c3C(=O)N(C3CCC(=O)NC3=O)C4=O)CC2)ccc1-c1ncnc(Nc2cccc(CS(C)(=N)=O)c2)n1 (configuration not stated) |  |  |  |  | 
3.23 µM | 8.61 µM | 99% | 2.28 µM | 1.72 µM | 0.38 µM | 100% | 0.0107 µM | 4.79 µM | 0.039 µM | 0.0312 µM | COc1cc(F)ccc1-c1ncnc(Nc2cccc(CS(C)(=O)=NC(=O)CCCCCCCCCC(=O)NCCNc3cccc4c3C(=O)N(C3CCC(=O)NC3=O)C4=O)c2)n1 (configuration not stated) |  |  |  |  | 

Continued, molecule first:

SMILES | IC50 (HCT-116) | IC50 (HepG2) | Activity [1] | IC50 (A549) | IC50 (B16) | IC50 (MOLM-13) | Activity [2] | IC50 (CDK9/cyclin T1) | IC50 (MCF7) | IC50 (MV4-11 [3]) | DC50 [9] | viability at 0.5 µM (MV4-11 [4]) | Activity (MV4-11 [5]) | Activity (MV4-11 [6]) | Activity (MV4-11 [7]) | Activity (MV4-11 [8])
COc1cc(F)ccc1-c1ncnc(Nc2cccc(CS(C)(=O)=NC(=O)COCCOCCOCC(=O)NCCCCCNc3cccc4c3C(=O)N(C3CCC(=O)NC3=O)C4=O)c2)n1 (configuration not stated) | 3.1 µM | 8.51 µM | 99% | 6.15 µM | 3.35 µM | 0.48 µM | 100% | 0.00935 µM | 10.2 µM | 0.25 µM |  |  |  |  |  | 
COc1cc(F)ccc1-c1ncnc(Nc2cccc(C[S@](C)(=N)=O)c2)n1 [ATUVECICLIB] | 2.94 µM | 2.7 µM | 0% | 3.29 µM | 1.47 µM | 0.2 µM | 0% |  | 5.52 µM | 0.56 µM |  | 78.6% | 15.7% | 4.99% | 0.26% | 21.1%
COc1cc(F)ccc1-c1ncnc(Nc2cccc(CS(C)(=O)=NC(=O)CCc3cn(CCCCCCCC(=O)NCCNc4cccc5c4C(=O)N(C4CCC(=O)NC4=O)C5=O)nn3)c2)n1 (configuration not stated) | 5.51 µM | 4.65 µM | 100% | 4.14 µM | 3.07 µM | 0.2 µM | 100% | 0.00925 µM | 11.4 µM | 0.18 µM | 0.0103 µM |  |  |  |  | 
COc1cc(F)ccc1-c1ncnc(Nc2cccc(CS(C)(=O)=NC(=O)COCCOCCOCC(=O)NCCNc3cccc4c3C(=O)N(C3CCC(=O)NC3=O)C4=O)c2)n1 (configuration not stated) | 12.2 µM | 17.5 µM | 0% | 13.2 µM | 18.4 µM | 0.65 µM | 51% | 0.0149 µM | 20.8 µM | 0.27 µM |  |  |  |  |  | 
COc1cc(F)ccc1-c1ncnc(Nc2cccc(CS(C)(=O)=NC(=O)CCc3cn(CCCCCC(=O)NCCNc4cccc5c4C(=O)N(C4CCC(=O)NC4=O)C5=O)nn3)c2)n1 (configuration not stated) | 16.4 µM | 10.3 µM | 66% | 8.35 µM | 16.2 µM | 0.99 µM | 88.8% | 0.0114 µM | 24.5 µM | 0.72 µM |  |  |  |  |  | 
COc1cc(F)ccc1-c1ncnc(Nc2cccc(CS(C)(=O)=NC(=O)CCC(=O)CCC(=O)NCCCCCNc3cccc4c3C(=O)N(C3CCC(=O)NC3=O)C4=O)c2)n1 (configuration not stated) | 4.77 µM | 8.58 µM | 45% | 11.1 µM | 8.64 µM | 0.74 µM | 67% | 0.0857 µM | 15.5 µM | 1.1 µM |  |  |  |  |  | 
COc1cc(F)ccc1-c1ncnc(Nc2cccc(CS(C)(=O)=NC(=O)CCC(=O)CCC(=O)NCCNc3cccc4c3C(=O)N(C3CCC(=O)NC3=O)C4=O)c2)n1 (configuration not stated) | 3 µM | 3.36 µM | 98% | 3.21 µM | 1.75 µM | 0.13 µM | 98% | 0.0102 µM | 5.18 µM | 0.07 µM |  |  |  |  |  | 
COc1cc(F)ccc1-c1ncnc(Nc2cccc(CS(C)(=O)=NC(=O)CCCC(=O)NCCNc3cccc4c3C(=O)N(C3CCC(=O)NC3=O)C4=O)c2)n1 (configuration not stated) | 20.6 µM | 19.1 µM | 99% | 35.6 µM | 22.1 µM | 2.8 µM | 100% | 0.0127 µM | 24.8 µM | 0.46 µM | 0.0273 µM |  |  |  |  | 

— ChEMBL document CHEMBL4819004, “Discovery of selective CDK9 degraders with enhancing antiproliferative activity through PROTAC conversion” (Eur J Med Chem, 2021)
